{
  "source": "patent US20180163180A1",
  "about": "“METHOD OF ENHANCING SOMATIC CELL REPROGRAMMING WITH THE ACETYLLYSINE READER BRD3R” (THE UAB RESEARCH FOUNDATION, INC ., priority 2015, published 2018)",
  "key": {"reprogramming cells": {"system": "reprogramming cells", "test": "Cell cycle analysis by flow cytometry of reprogramming cells", "type": "cell-based, human", "details": "day 6 of reprogramming, compared to controls", "description": "• Cell Cycle Analysis: Harvest cells by trypsin solution. Fix cell with 70% cold ethanol overnight at 4° C. The next day, wash cells with PBS. Treat cells with 0.2 mg/ml RNase A in PBS containing 0.1% Triton X-100 at 37° C. for 1 h. Add PI at a final concentration of 10 μg/ml. Keep the cells in dark and at 4° C. until analysis. Analyze on BD LSRFortessa. Percentage of cells at each cell cycle phases was determined with Watson (pragmatic) (Watson et al., (1987) Cytometry 8: 1-8) and Dean-Jett-Fox (Fox M. H. (1980) Cytometry 1: 71-77) models on FlowJow."}, "Human fibroblasts": {"system": "Human fibroblasts", "test": "CyQUANT cell proliferation assay of reprogramming cells", "type": "cell-based", "details": "before day 9 of reprogramming", "description": "• Cell proliferation assays: Human fibroblasts were transduced with reprogramming viruses. Forty-eight hs post transduction, the reprogramming cells were plated at 4,000 cells/well of a 96-well plate. Five replicates were performed for each condition. On days 0, 1, 3, 5, 7, 9, 11 and 13, the cells were measured using a CyQUANT® NF Cell Proliferation Assay Kit (Life Technologies; c35007) per manufacturer's instruction."}, "reprogramming BJ cells": {"system": "reprogramming BJ cells", "test": "RNA sequencing of cells on day 3 of reprogramming", "type": "cell-based, human", "description": "• RNA sequencing: mRNA sequencing was performed on the Illumina HiSeq2500 using the sequencing reagents and flow cells providing up to 300 Gb of sequence information per flow cell. Briefly, the quality of the total RNA was assessed using the Agilent 2100 Bioanalyzer followed by 2 rounds of polyA+ selection and conversion to cDNA. The stranded mRNA library generation kits were used per manufacturer's instructions (Agilent, Santa Clara, Calif.). Library construction consists of random fragmentation of the polyA mRNA, followed by cDNA production using random primers with inclusion of Actinomycin D in the first strand reaction. The ends of the cDNA are repaired, polyA-tailed and adaptors ligated for indexing (4 different barcodes per lane) during the sequencing runs. The cDNA libraries were quantitated using qPCR in a Roche LightCycler 480 with the Kapa Biosystems kit for library quantitation (Kapa Biosystems, Woburn, Mass.) prior to cluster generation. Clusters were generated to yield approximately 725 K to 825 K clusters/mm^2. Cluster density and quality were determined during the run after the first base addition parameters were assessed. Paired end 2×50 bp sequencing runs were run to align the cDNA sequences to the reference genome.\n• Bioinformatics: 25-65 million of paired 51 bp reads were obtained for each sample. RNA sequencing reads were mapped to the human reference genome (GRCh37/hg19) using TopHat (v2.0.13) (Kim et al., (2013) Genome Biol. 14: R36). For more accurate mapping, the mean insert sizes and the standard deviations were calculated using Picard-tools (v1.126), and were passed to the mapper along with a Gene Transfer File (GTF version GRCh37.70) and the data were re-aligned. Read count tables were generated using HT-seq (v0.6.0) (Anders et al., (2015) Bioinformatics 31: 166-169). Deferential Expression (DE) analysis was performed using DESeq (v3.0) (Anders & Huber (2010) Genome Biol. 11: R106). Cufflinks v2.2.1 (Trapnell et al., (2010) Nat. Biotechnol. 28: 511-515) and Cummerbund v3.0 (Goff et al., (2014): Visualization and Exploration of Cufflinks High-throughput Sequencing Data., pp. 45) were also used for calculating expression levels in FPKM and data visualization. The BigWig files were generated using Bedtools (v2.17.0) (Quinlan & Hall (2010) Bioinformatics 26: 841-842) and bedGraphToBigWig tool (v4). For the analysis of micro-array data, Limma v3.0 (Smyth G. K., (2005) in Bioinformatics and Computational Biology Solutions Using R and Bioconductor: Gentleman et al., Eds. (Springer: New York): Ch. 23: pp. 397-420) was used Gene Ontology (GO) analysis was conducted using PANTHER (Mi et al., (2013) Nat. Protoc. 8: 1551-1566), Cytoscape-BiNGO (Saito et al., (2012) Nat. Methods 9: 1069-1076) and DAVID (Huang da et al., (2009) Nat. Protoc. 4: 44-57). Lists of mitotic genes were compiled based on the results from the three tools."}},
  "data": [
    {"substance": "BRD3R: BRD3 with Reprogramming activity; 556 aa isoform of human BRD3 (AAH32124, SEQ ID NO: 47), encoded by cDNA L61", "values": [
      {"measurement": "number of cells in G1", "setting": "reprogramming cells", "result": "statistically reduced"},
      {"measurement": "population of cells in G2/M phases", "setting": "reprogramming cells", "result": "statistically increased"},
      {"measurement": "overall proliferation rate vs control cells", "setting": "Human fibroblasts", "result": "comparable overall proliferation rates"},
      {"measurement": "expression of CDKN2A, CDKN2B, CDKN1A, TP53 (p53-p21 pathway)", "setting": "reprogramming BJ cells; BRD3R reprogramming cells", "result": "Downregulation was not seen"},
      {"measurement": "AFC of CEP78", "setting": "reprogramming BJ cells; day 3 of reprogramming", "result": 0.94, "unit": "×"},
      {"measurement": "AFC of ERG", "setting": "reprogramming BJ cells; day 3 of reprogramming", "result": 0.84, "unit": "×"},
      {"measurement": "AFC of PSMB9", "setting": "reprogramming BJ cells; day 3 of reprogramming", "result": 0.87, "unit": "×"},
      {"measurement": "number of upregulated genes in the mitotic category", "setting": "reprogramming BJ cells; of 335 GO mapped genes, day 3", "result": 128, "unit": "genes"},
      {"measurement": "AFC of the 23 always upregulated mitotic genes", "setting": "reprogramming BJ cells; p<0.05, day 3", "result": "at least 2.24 ×"},
      {"measurement": "total mitotic genes statistically upregulated in at least one comparison", "setting": "reprogramming BJ cells; ≥1.5×, p<0.05, 4 IFC and 1 AFC comparisons, day 3", "result": 185, "unit": "genes"},
      {"measurement": "number of genes upregulated in BRD3R-expressing cells", "setting": "reprogramming BJ cells; ≥1.7×, p<0.05, ADNRC≥50, day 3", "result": 401, "unit": "genes"}
    ]}
  ]
}
